Reference: US20220315934A1, “HETEROLOGOUS RIBOSOME GENERATION, […] COMPOSITIONS THEREOF” (priority 2019, published 2022)

Columns and labels:
Format in all cases: cell-based
heterologous ribosomes = assay: Erythromycin-dependent orthogonal sfGFP reporter in S4246, heterologous ribosomes
From the text: (§1) To assess the degree of association between E. coli LSUs and heterologous SSUs, an erythromycin-dependent reporter was developed to distinguish between genome- (E. coli; erythromycin-resistant) and episome-derived (heterologous; erythromycin-sensitive) LSUs. The erythromycin-resistant strain S4246 was developed, wherein all seven genomic 23S genes (rrlA-H) of 52060 cells were mutated (A2058U) (75) to mitigate macrolide binding in the ribosomal exit tunnel (FIG. 18A) (76, 77). rrlA-H A2058U sequences are presented in Table 1.
(§2) Next, the ErmC leader peptide, ermCL, was introduced ahead of the orthogonal sfGFP reporter, ensuring that reporter translation would be abrogated via erythromycin- and ermCL-dependent translational stalling (78) (FIG. 18B).
This analysis was next extended to a set of 20 functional heterologous ribosomes.

E. coli strain S4246 = assay: Antibiotic sensitivity/resistance of erythromycin-resistant strain S4246
Experimental: The erythromycin-resistant strain S4246 was generated using conventional recombineering (76, 77). Briefly, chemically competent S2060 cells were transformed with pKD46 (77) and plated on 2×YT agar plates supplemented with 50 μg mL^−1 carbencillin at 30° C. A single colony was picked, grown at 30° C. in 2×YT liquid medium supplemented with 50 μg mL^−1 carbencillin and 10 mM arabinose, and made chemically competent when the culture reached the appropriate OD600. Chemically competent S2060/pKD46 cells were transformed with the phosphothiorated recombineering oligonucleotide AB5708 (5′-C*T*C*A*[…] CCGCG […]-3′, SEQ ID NO: 403; phosphothirate bonds indicated as *, introduced mutation is bolded) to introduce the rrlA-H A2058U mutation on replichore 2 (76). Following recovery for 3 hours at 30° C., transformed cells were plated on 2×YT agar plates supplemented with 1000 μg mL^−1 erythromycin and incubated at 37° C. to cure the resident pKD46 plasmid. Following overnight growth, single colonies were picked into 2×YT liquid medium supplemented with 50 μg mL^−1 streptomycin, 10 μg mL^−1 tetracycline and 1000 μg mL^−1 erythromycin and allowed to grow overnight at 37° C. To assess the degree of rrlA-H mutagenesis, cultures were used as PCR templates using primers AB5710 (5′-[…]-3′, SEQ ID NO: 404) and AB5711 (5′-[…]-3′, SEQ ID NO: 405), and the PCR products were treated with the endonuclease HpyCH4III (New England Biolabs) according to the manufacturer's guidelines. Wildtype rrlA-H genotypes show no digestion under these conditions, whereas complete conversion results in complete PCR product digestion. Intermediate (incomplete) digestion indicated in incomplete conversion of all seven genomic alleles. The completely converted strain S4246 was confirmed to be sensitive to the following antibiotics (ensures no resistance crosstalk with plasmid-borne markers): carbenicillin (50 μg mL^−1), spectinomycin (100 μg mL^−1), chloramphenicol (40 μg mL^−1), and kanamycin (30 μg mL^−1). The strain was confirmed to be resistant to the following antibiotics: streptomycin (50 μg mL^−1), tetracycline (10 μg mL^−1), and erythromcyin (1000 μg mL^−1).

[1] = tested on: episome-derived E. coli orthogonal ribosome LSUs; assay: Erythromycin-dependent (ermCL) orthogonal sfGFP reporter in S4246, E. coli orthogonal ribosomes
From the text: as §1, §2
To validate this sensor, the erythromycin sensitivity of an episome-derived E. coli orthogonal ribosome encoding or lacking the identical A2058U mutation was assessed. A recently described stapled E. coli ribosome (d2d8) (7) that preferentially uses a covalently linked 23S rRNA, with or without the identical mutation was used as a control.

[2] = heterologous ribosomes bearing intermediate homology (92.9-97.0%)

SMILES: CC[C@H]1OC(=O)[C@H](C)[C@@H](O[C@H]2C[C@@](C)(OC)[C@@H](O)[C@H](C)O2)[C@H](C)[C@@H](O[C@@H]2O[C@H](C)C[C@H](N(C)C)[C@H]2O)[C@](C)(O)C[C@@H](C)C(=O)[C@H](C)[C@@H](O)[C@]1(C)O [erythromycin]
- sfGFP signal upon erythromycin treatment (heterologous ribosomes; [2]): extensive reduction
- viability upon erythromycin treatment (heterologous ribosomes; [2]): no associated viability defect
- sfGFP translation and cell viability upon erythromycin treatment (heterologous ribosomes; heterologous ribosomes with high 16S sequence identity to E. coli (≥99.2%)): dramatic reduction
- sfGFP signal upon erythromycin treatment (heterologous ribosomes; more divergent heterologous ribosomes (79.3-90.3%)): decreased minimally
- MIC (E. coli strain S4246; Escherichia coli, S4246): > 1000 µg/mL
- resistance of strain S4246 (E. coli strain S4246; erythromycin 1000 μg mL^−1): resistant
- change in orthogonal translation upon erythromycin dosing ([1]; A2058U-LSUs, free and stapled (d2d8)): no appreciable change
- change in orthogonal translation upon erythromycin dosing ([1]; unmutated LSUs, dose-dependent): marked reduction

SMILES: [H]/N=C(/N)N[C@H]1[C@H](O)[C@@H](O)[C@H](O[C@@H]2O[C@@H](C)[C@](O)(C=O)[C@H]2O[C@@H]2O[C@@H](CO)[C@H](O)[C@@H](O)[C@@H]2NC)[C@@H](N/C(N)=N\[H])[C@@H]1O [streptomycin]
- resistance of strain S4246 (E. coli strain S4246; streptomycin 50 μg mL^−1): resistant

SMILES: CN[C@@H]1[C@H](O)[C@H](NC)[C@H]2O[C@@]3(O)C(=O)C[C@@H](C)O[C@H]3O[C@@H]2[C@H]1O [spectinomycin]
- sensitivity of strain S4246 (E. coli strain S4246; spectinomycin 100 μg mL^−1): sensitive

SMILES: CC1(C)S[C@@H]2[C@H](NC(=O)C(C(=O)O)c3ccccc3)C(=O)N2[C@H]1C(=O)O (stereo partly drawn) [carbenicillin]
- sensitivity of strain S4246 (E. coli strain S4246; carbenicillin 50 μg mL^−1): sensitive

SMILES: O=C(N[C@H](CO)[C@H](O)c1ccc([N+](=O)[O-])cc1)C(Cl)Cl [chloramphenicol]
- sensitivity of strain S4246 (E. coli strain S4246; chloramphenicol 40 μg mL^−1): sensitive
